The target of one assay is T1, PPARγ LBD (Homo sapiens, UniProt P37231).
T1 construct: expressed in transfected cells; host or cells: COS-7
T1 sequence (P37231 238-503 limits assumed): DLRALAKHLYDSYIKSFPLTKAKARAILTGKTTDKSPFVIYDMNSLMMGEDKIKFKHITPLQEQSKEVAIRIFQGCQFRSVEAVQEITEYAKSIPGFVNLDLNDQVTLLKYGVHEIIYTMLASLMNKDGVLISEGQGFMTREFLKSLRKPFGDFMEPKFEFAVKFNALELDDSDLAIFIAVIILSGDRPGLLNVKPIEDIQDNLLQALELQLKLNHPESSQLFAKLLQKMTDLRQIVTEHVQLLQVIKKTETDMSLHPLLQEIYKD
In words: LBD-hPPARs transactivation assay (GAL4-LBD luciferase reporter in COS-7 cells). The following applies: 48 h. In kind it is cell-based. From the text:
LBD-hPPARs Transactivation Assay
COS-7 cells were cultivated in 24-well plates and transfected with the pFACMV plasmids that encode the chimeric proteins containing the GAL4 DNA binding domain fused to the PPARγ LBD. The reporter plasmid for the foregoing constructions was pFR-Luc, which contains five repetitions of the GAL4-response element in front of a promoter that controls the transcription of the luciferase gene. Lipofectamine was used as a transfection agent.
The plasmids of the chimeric receptors and the reporter gene were inserted in the cells by transitory transfection in COS-7 cells in culture.

A further assay concerns the target T2, GST-hPPARγ2 (Homo sapiens, UniProt P37231).
T2 construct: the complete cDNA of the […] human PPARs were cloned into pGEX4T2; made in house; host or cells: Escherichia coli BL21 (DE3)
T2 sequence (P37231 1-505): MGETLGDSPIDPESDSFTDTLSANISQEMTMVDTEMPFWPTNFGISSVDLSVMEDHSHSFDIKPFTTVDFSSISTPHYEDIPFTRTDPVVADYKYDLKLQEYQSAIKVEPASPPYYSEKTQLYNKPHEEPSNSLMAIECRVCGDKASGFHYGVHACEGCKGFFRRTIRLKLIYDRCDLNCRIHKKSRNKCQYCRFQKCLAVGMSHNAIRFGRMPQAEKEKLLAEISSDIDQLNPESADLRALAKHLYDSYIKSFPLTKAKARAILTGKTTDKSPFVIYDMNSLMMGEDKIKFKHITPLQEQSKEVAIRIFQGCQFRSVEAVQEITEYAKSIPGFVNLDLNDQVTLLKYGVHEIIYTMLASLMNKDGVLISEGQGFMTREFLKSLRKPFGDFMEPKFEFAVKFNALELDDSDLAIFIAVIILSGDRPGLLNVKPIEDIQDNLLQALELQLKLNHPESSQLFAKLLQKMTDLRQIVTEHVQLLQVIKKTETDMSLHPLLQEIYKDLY
In words: Assay of binding to the PPARγ2 ([3H]BRL-49853 displacement). To be noted: Table 19; GST-hPPARγ2, [3H]BRL-49853 100 nM; read-out: Affinity PPARγ(1). Here is the method:
Assay of Binding to the PPARγ2
The cDNA encoding for the open reading frame of the hPPARγ2 is amplified by PCR (polymerase chain reaction) and inserted in the plasmid pGEX-4T-2.
The reaction mixture was transferred to a Multiscreen Durapore (Millipore) microplate containing glutathione-Sepharose 4B in every well. The reaction mixture was left to incubate with the resin during 10 min, and then centrifuged at 735 g during 2 min. To dissociate the receptor bound to the resin, reduced glutathione 10 mM is added and incubated during 10 min. The receptor was eluted by centrifugation. Then, 800 μL of scintillation liquid were added to the elution and the contained radioactivity was quantified by liquid scintillation spectroscopy (Microbeta Wallac, Perkin Elmer).

SMILES strings stand for the structures.

On to `O=C(O)CCN(Cc1cccc(OCc2ccccc2)c1)C(=O)c1cccc(OCCN(Cc2ccccc2)Cc2ccccc2)c1` [Example 163, 3-{(3-Benzyloxybenzyl)-[3-(2-dibenzylaminoethoxy)benzoyl]amino}propionic acid], for which the “Functional activity PPARγ” value at PPARγ LBD is reported as “Antagonist”. For the same compound, the Ki at GST-hPPARγ2 is < 1000 nM.
In the case of `COC(=O)[C@H](Cc1ccc(OCc2ccccc2)cc1)NC(=O)c1ccc(OCc2ccccc2Cl)cc1` [Example 20, (2S)-3-(4-Benzyloxyphenyl)-2-[4-(2-chlorobenzyloxy)benzoylamino]propionic acid methyl ester], at PPARγ LBD, the “Functional activity PPARγ” value is listed as “Partial agonist”. In addition, the Ki at GST-hPPARγ2 was < 1000 nM.
In the case of `O=C(O)CCN(Cc1ccc(OCc2ccccc2)cc1)C(=O)c1cccc(OCCN(Cc2ccccc2)Cc2ccccc2)c1` [Example 164, 3-{(4-Benzyloxybenzyl)-[3-(2-dibenzylaminoethoxy)benzoyl]amino}propionic acid], the “Functional activity PPARγ” value on PPARγ LBD is “Antagonist”. The Ki at GST-hPPARγ2 lay within 1000 to 3000 nM.
Taken in the same sequence, the figures for `O=C(O)CCN(Cc1cccc(OCc2ccccc2)c1)C(=O)c1ccc(OCCN(Cc2ccccc2)Cc2ccccc2)cc1` [Example 162, 3-{(3-Benzyloxybenzyl)-[4-(2-dibenzylaminoethoxy)benzoyl]amino}propionic acid] were “Antagonist” and < 1000 nM.
As to `Cc1nc2ccccc2nc1OCCOc1ccc(C(=O)N[C@@H](Cc2ccc(OCc3ccccc3)cc2)C(=O)O)cc1` [Example 160, (2S)-3-(4-Benzyloxyphenyl)-2-{4-[2-(3-methylquinoxalin-2-yloxy)ethoxy]benzoylamino}propionic acid], at PPARγ LBD, the “Functional activity PPARγ” value is “Partial agonist”. Further, the Ki at GST-hPPARγ2 is > 3000 nM.
Taken in the same sequence, the figures for `O=C(N[C@H](Cc1c[nH]c2ccccc12)C(=O)O)c1ccc(OCCN(Cc2ccccc2)Cc2ccccc2)cc1` [Example 131, (2R)-2-[4-(2-Dibenzylaminoethoxy)benzoylamino]-3-(1H-indol-3-yl)propionic acid] were “Partial agonist” and 1000 to 3000 nM.
Turning to `COC(=O)[C@H](Cc1ccc(OCc2ccccc2)cc1)NC(=O)c1ccc(OCc2ccccc2C)cc1` [Example 27, (2S)-3-(4-Benzyloxyphenyl)-2-[4-(2-methylbenzyloxy)benzoylamino]propionic acid methyl ester], at PPARγ LBD, the “Functional activity PPARγ” value is reported as “Antagonist”. In addition, the Ki at GST-hPPARγ2 is < 1000 nM.
Taken in the same sequence, the figures for `O=C(N[C@@H](Cc1ccc(OCc2ccccc2)cc1)C(=O)O)c1cccc(OCc2ccc(OCc3ccccc3)cc2)c1` [Example 185, (2S)-2-[3-(4-Benzyloxybenzyloxy)benzoylamino]-3-(4-benzyloxyphenyl)propionic acid] were “Partial agonist” and < 1000 nM.
Taken in the same sequence, the figures for `O=C(O)CCN(Cc1ccc(OCc2ccccc2)cc1)C(=O)c1ccc(OCc2cccc(OCc3ccccc3)c2)cc1` [Example 176, 3-{(4-Benzyloxybenzyl)-[4-(3-benzyloxybenzyloxy)benzoyl]amino}propionic acid] were “Antagonist” and < 1000 nM.
In the case of `Cc1nc2ccccc2nc1OCCOc1ccc(C(=O)N[C@@H](Cc2ccc(OCc3ccccc3)cc2)C(=O)N(C)C)cc1` [Example 267, N-[(1S)-2-(4-Benzyloxyphenyl)-1-dimethylcarbamoylethyl]-4-[2-(3-methylquinoxalin-2-yloxy)ethoxy]benzamide], at PPARγ LBD, the “Functional activity PPARγ” value is “Partial agonist”. Further, at GST-hPPARγ2, the Ki fell in the range of 1000 to 3000 nM.
For the compound `Cc1nc2ccccc2nc1OCCOc1ccc(C(=O)N(CCC(=O)O)Cc2cccc(OCc3ccccc3)c2)cc1` [Example 170, 3-{(3-Benzyloxybenzyl)-{4-[2-(3-methylquinoxalin-2-yloxy)ethoxy]benzoyl}amino}propionic acid], the “Functional activity PPARγ” value at PPARγ LBD is recorded as “Antagonist”. Moreover, on GST-hPPARγ2, the Ki fell in the range of 1000 to 3000 nM.
Taken in the same sequence, the figures for `O=C(N[C@@H](Cc1ccc(OCc2ccccc2)cc1)C(=O)O)c1ccc(OCCCc2ccccc2)cc1` [Example 153, (2S)-3-(4-Benzyloxyphenyl)-2-[4-(3-phenylpropoxy)benzoylamino]propionic acid] were “Partial agonist” and 1000 to 3000 nM.
Taken in the same sequence, the figures for `O=C(NC(Cc1c[nH]c2ccc(Br)cc12)C(=O)O)c1ccc(OCCN(Cc2ccccc2)Cc2ccccc2)cc1` (stereo not drawn) [Example 142, 3-(5-Bromo-1H-indol-3-yl)-2-[4-(2-dibenzylaminoethoxy)benzoylamino]propionic acid] were “Antagonist” and 1000 to 3000 nM.
Taken in the same sequence, the figures for `O=C(N[C@@H](Cc1ccc(OCc2ccccc2)cc1)C(=O)O)c1ccc(OCc2ccccc2)cc1` [Example 129, (2S)-2-(4-Benzyloxybenzoylamino)-3-(4-benzyloxyphenyl)propionic acid] were “Partial agonist” and < 1000 nM.
Turning to `O=C(NC(Cc1ccc(-c2ccccc2)cc1)C(=O)O)c1ccc(OCCN(Cc2ccccc2)Cc2ccccc2)cc1` (stereo not drawn) [Example 136, 3-Biphenyl-4-yl-2-[4-(2-dibenzylaminoethoxy)benzoylamino]propionic acid], the “Functional activity PPARγ” value on PPARγ LBD is given as “Antagonist”. Further, the Ki at GST-hPPARγ2 fell in the range of 1000 to 3000 nM.
As for `O=C(N[C@@H](Cc1ccc(OCc2ccccc2)cc1)C(=O)O)c1cccc(OCc2cccc(OCc3ccccc3)c2)c1` [Example 145, (2S)-2-[3-(3-Benzyloxybenzyloxy)benzoylamino]-3-(4-benzyloxyphenyl)propionic acid], the “Functional activity PPARγ” value at PPARγ LBD was “Antagonist”. Also, on GST-hPPARγ2, the Ki was in the range of 1000 to 3000 nM.
Taken in the same sequence, the figures for `O=C(N[C@@H](Cc1ccc(OCc2ccccc2)cc1)C(=O)O)c1ccc(OCc2ccccc2Br)cc1` [Example 238, (2S)-3-(4-Benzyloxyphenyl)-2-[4-(2-bromobenzyloxy)benzoylamino]propionic acid] were “Antagonist” and < 1000 nM.
As to `COC(=O)[C@H](Cc1ccc(OCc2ccccc2)cc1)NC(=O)c1ccc(OCc2cccc(Cl)c2)cc1` [Example 21, (2S)-3-(4-Benzyloxyphenyl)-2-[4-(3-chlorobenzyloxy)benzoylamino]propionic acid methyl ester], the “Functional activity PPARγ” value on PPARγ LBD is “Partial agonist”. The Ki at GST-hPPARγ2 was < 1000 nM.
For the compound `COC(=O)[C@H](Cc1ccc(OCc2ccccc2)cc1)NC(=O)c1ccc(OCCOc2nc3ccccc3nc2C)cc1` [Example 95, (2S)-3-(4-Benzyloxyphenyl)-2-{4-[2-(3-methylquinoxalin-2-yloxy)ethoxy]benzoylamino}propionic acid methyl ester], the “Functional activity PPARγ” value on PPARγ LBD is reported as “Agonist”. Besides, the Ki at GST-hPPARγ2 was < 1000 nM.
Taken in the same sequence, the figures for `Cc1nc2ccccc2nc1OCCOc1ccc(C(=O)N[C@@H](Cc2ccc(F)cc2)C(=O)O)cc1` [Example 192, (2S)-3-(4-Fluorophenyl)-2-{4-[2-(3-methylquinoxalin-2-yloxy)ethoxy]benzoylamino}propionic acid] were “Partial agonist” and > 3000 nM.
Taken in the same sequence, the figures for `O=C(N[C@@H](Cc1ccc(OCc2ccccc2)cc1)C(=O)O)c1cccc(OCc2cccc(Oc3ccccc3)c2)c1` [Example 188, (2S)-3-(4-Benzyloxyphenyl)-2-[3-(3-phenoxybenzyloxy)benzoylamino]propionic acid] were “Partial agonist” and < 1000 nM.

Source of the values: patent US20060160894A1, “Benzamides as ppar modulators” (LABORATORIOS S.A.L.V.A.T.,S.A., priority 2003, published 2006).
